Assay results from publication PMC8624998, “Synthesis and Antiproliferative Evaluation of 3-Chloroazetidin-2-ones with Antimitotic Activity: Heterocyclic Bridged Analogues of Combretastatin A-4” (Pharmaceuticals, 2021).
Read-outs that look alike come from different tables or passages of the source.

Experiments:
[1] = test system: MDA-MB-231 cells; assay: Cell viability assay, antiproliferative activity; assay type: cell-based; settings: Homo sapiens; MDA-MB-231, 72 h; 10e and 11n results from NCI; read-out: Antiproliferative Activity IC50 MDA-MB-231, 72 h
Source text: Selected β-lactam compounds were next evaluated in the triple negative cell line MDA-MB-231 (Table 4). […] These cancers are difficult to treat since they are generally not responsive to hormone therapies such as the selective oestrogen receptor modulator (SERM) tamoxifen, or aromatase inhibitors such as anastrozole, or to the monoclonal antibody Herceptin, which targets the HER2 receptor. There are fewer treatment options available for TNBC compared with ER+, PR+ and HER2+ breast cancers and the prognosis is poorer. […]. The human breast carcinoma cell line MCF-7 was purchased from the European Collection of Animal Cell Cultures (ECACC). Triple negative breast cancer Hs578T cells and its invasive variant Hs578Ts(i)8 were a kind gift from Dr. Susan McDonnell, School of Chemical and Bioprocess Engineering, University College Dublin. U266 cells were a gift from Dr. Tony McElligott, School of Medicine, St James’s Hospital, Trinity College Dublin. HT-29 cells were purchased from the European Collection of Cell Cultures (originating from a human adenocarcinoma of the colon). The human breast carcinoma cell line MDA-MB-231 and the HL-60 cells derived from a patient with acute myeloid leukaemia were both obtained from ECACC (Salisbury, UK). The SW-480 cells were a kind gift from Dr. Brian Flood, School of Biochemistry and Immunology, Trinity College Dublin. HEK-293T (normal epithelial embryonic kidney cells) were cultured in Dulbecco’s Modified Eagle’s Medium (DMEM) with GlutaMAXTM-I in the absence of non-essential amino acids. Human breast cancer MCF-7 cells and multiple myeloma U266 cells were cultured in Minimum Essential Media (MEM) with GlutaMAX™-I, supplemented with 1% (v/v) non-essential amino acids, 10% 2(v/v) foetal bovine serum (FBS) and 1% (v/v) penicillin/streptomycin 5000 U/mL. MDA-MB-231 cells were maintained in DMEM supplemented with 10% (v/v) foetal bovine serum, 2 mM L-glutamine and 100 μg/mL penicillin/streptomycin (complete medium). Colon cancer HT-29 and SW-480 and triple negative breast cancer Hs578T and its invasive variant Hs578T8i were cultured in DMEM with GlutaMAX™-I, with the same supplement in the absence of non-essential amino acids. Leukaemia HL-60 cancer cells were cultured in Roswell Park Memorial Institute Media (RPMI-1640) with GlutaMAX™-I, supplemented with 10% FCS media, and 100 μg/mL penicillin/streptomycin as above. Cell numbers were monitored using a haemocytometer. Cell culture flasks were incubated in a humidified incubator (5% CO2/95% air) at 37 °C. All cell lines were sub-cultured three times per week with trypsinisation using TrypLE Express (1X) required for adherent cell lines.
(§1) . All stock solutions and serial dilution in ethanol/DMSO were stored at -20 °C. All cells were seeded at a density of 2.5 × 10^4 cells/mL in a 96-well plate (200 μL per well). The cells were incubated in a […] atmosphere at 37 °C for 24 h, then treated with test compound (2 μL of stock solutions per 200-microlitre well) in ethanol to obtain a concentration range of 1 nM–200 μM for the study. The plates were then re-incubated for a further 72 h. Control wells contained an equivalent volume of the vehicle ethanol or DMSO (1% v/v). MTT cell viability assay: The culture medium was removed, and the cells were washed with phosphate buffered saline (PBS, […]). MTT (dissolved in PBS, […]) was added to obtain a final concentration of MTT (1 mg/mL). Cells were incubated at 37 °C for 3 h in the dark. Solubilisation was commenced by the addition of DMSO ([…]) and the cells were maintained at 20 °C in the dark for 20 min before reading the absorbance to ensure complete colour diffusion. The absorbance value of control cells (no added compound) was set to 100% cell viability and absorbance versus cell density per well was determined to assess cell viability using Graph-Pad Prism software. […]

[2] = test system: MCF-7 cells; assay: Lactate dehydrogenase (LDH) assay for cytotoxicity; assay type: cell-based; settings: Homo sapiens, MCF7; MCF-7, compound concentration 10 μM, 24 h; read-out: Lactate Dehydrogenase assay: % cell lysis (cell death)
Method: The toxicity and selectivity of 10n towards normal cells was investigated in the non-tumourigenic cell line HEK-293T (normal human epithelial embryonic kidney cells). […] The cytotoxic effect of selected 3-chloro-β-lactams 10e, 10f, 10i, 10n and 3,3-dichloro-β-lactams 11e and 11n in MCF-7 cells was initially determined using the lactate dehydrogenase (LDH) assay.
The cytotoxicity of selected compounds was determined using the CytoTox 96 non-radioactive cytotoxicity assay (Promega Corporation, Madison, WI, USA). Briefly, MCF-7 cells were seeded in a 96-well plate (200 μL per well), at a density of 2.5 × 10^4 cells/mL, and incubated for 24 h. The cells were then treated with selected β-lactam compounds as described above for the cell viability assay. […] Supernatant (50 μL) was removed from each well to a 96-well plate. Reconstituted ‘CytoTox 96® Reagent (50 μL) was added to each well and the plate was placed in the dark at 20 °C for 30 min. ‘Stop solution’ (50 μL) was added to each well and the samples were analysed at 490 nm using a Dynatech MR5000 plate reader. The percentage cell death at 10 μM was calculated.

[3] = test system: MCF-7 cells; settings: MCF-7, 72 h; previously reported compounds, footnote g; cited from earlier work
[4] = test system: SW480 cells; assay: Cell viability assay, antiproliferative activity; assay type: cell-based, human; settings: SW480, 10 μM
Method: […]. The corresponding values for 10e in these cell lines were 161 nM (HL-60), 55 nM (SW480) and 135 nM (HT-29). […] […]. SW480 colon cells expressed low levels of the UDP-glucuronosyltransferase (UGT) protein compared to expression levels in HT-29 cells. […] […].
(§2) The human breast carcinoma cell line MCF-7 was purchased from the European Collection of Animal Cell Cultures (ECACC). Triple negative breast cancer Hs578T cells and its invasive variant Hs578Ts(i)8 were a kind gift from Dr. Susan McDonnell, School of Chemical and Bioprocess Engineering, University College Dublin. U266 cells were a gift from Dr. Tony McElligott, School of Medicine, St James’s Hospital, Trinity College Dublin. HT-29 cells were purchased from the European Collection of Cell Cultures (originating from a human adenocarcinoma of the colon). The human breast carcinoma cell line MDA-MB-231 and the HL-60 cells derived from a patient with acute myeloid leukaemia were both obtained from ECACC (Salisbury, UK). The SW-480 cells were a kind gift from Dr. Brian Flood, School of Biochemistry and Immunology, Trinity College Dublin. HEK-293T (normal epithelial embryonic kidney cells) were cultured in Dulbecco’s Modified Eagle’s Medium (DMEM) with GlutaMAXTM-I in the absence of non-essential amino acids. Human breast cancer MCF-7 cells and multiple myeloma U266 cells were cultured in Minimum Essential Media (MEM) with GlutaMAX™-I, supplemented with 1% (v/v) non-essential amino acids, 10% 2(v/v) foetal bovine serum (FBS) and 1% (v/v) penicillin/streptomycin 5000 U/mL. MDA-MB-231 cells were maintained in DMEM supplemented with 10% (v/v) foetal bovine serum, 2 mM L-glutamine and 100 μg/mL penicillin/streptomycin (complete medium). Colon cancer HT-29 and SW-480 and triple negative breast cancer Hs578T and its invasive variant Hs578T8i were cultured in DMEM with GlutaMAX™-I, with the same supplement in the absence of non-essential amino acids. Leukaemia HL-60 cancer cells were cultured in Roswell Park Memorial Institute Media (RPMI-1640) with GlutaMAX™-I, supplemented with 10% FCS media, and 100 μg/mL penicillin/streptomycin as above. Cell numbers were monitored using a haemocytometer. Cell culture flasks were incubated in a humidified incubator (5% CO2/95% air) at 37 °C. All cell lines were sub-cultured three times per week with trypsinisation using TrypLE Express (1X) required for adherent cell lines.
as §1, with “software. AlamarBlue cell viability assay: Cells were seeded in 96-well plates (e.g., MCF-7, 5 × 10^3 cells/well) and (HT-29 cells, 1 × 10^3 cells/well) and (HL-60 cells, 1 × 10^4 cells/well) with a total volume per well of 200 µL. After 24 h, cells were treated in triplicate with serial dilutions of CA-4 or β-lactam analogues (0.001–100 μM), medium alone or vehicle (1% ethanol (v/v)).” for “software.”

[5] = test system: MCF-7 cells; assay: Cell viability assay (MTT/AlamarBlue), antiproliferative activity; assay type: cell-based, human
Source text: […]. The introduction of the halogen substituent at C-3 was examined in an effort to investigate the effect on the activity of this substituent, and subsequently optimising the cytotoxic effects against MCF-7 human breast cancer cells.
as §2
as §1, with “software. AlamarBlue cell viability assay: Cells were seeded in 96-well plates (e.g., MCF-7, 5 × 10^3 cells/well) and (HT-29 cells, 1 × 10^3 cells/well) and (HL-60 cells, 1 × 10^4 cells/well) with a total volume per well of 200 µL. After 24 h, cells were treated in triplicate with serial dilutions of CA-4 or β-lactam analogues (0.001–100 μM), medium alone or vehicle (1% ethanol (v/v)).” for “software.”

[6] = HPLC stability study in phosphate buffers; assay type: physicochemical; settings: phosphate buffer
Method: HPLC stability studies at three different pH systems were performed on a representative compound 16a to determine the stability at acidic pH 4, pH 7.4 and basic pH 9 (acid pH found in the stomach, basic found in the intestine and pH 7.4 in the plasma).
A stability study for compound 16a was performed by analytical HPLC using a Symmetry® column (C18, […], 4.6 × 150 mm), a Waters 2487 Dual Wavelength Absorbance detector, a Waters 1525 binary HPLC pump and a Waters 717 plus Autosampler (Waters Corporation, Milford, MA, USA). Samples were detected at λ 254 nm using acetonitrile (70%)/water (30%) as the mobile phase over 15 min and a flow rate of 1 mL/min. A stock solution of the compound was prepared using 10 mg of compound 16a in 10 mL of mobile phase (1 mg/mL). A calibration curve was prepared using a solution of 0.5, 0.25, 0.125, 0.0625, 0.03125, 0.015625 and 0.0078 mg/mL. (i) Stability of 16a in phosphate buffers: Phosphate buffers at pH values 4, 7.4 and 9 were prepared according to the British Pharmacopoeia 2020. A total of 300 µL of stock solution (1 mg/mL ACN) for 16a was added to a vial containing 9.7 mL of buffer, mixed and pre-heated to 37°C. A total of 1 mL of the solution was added to the HPLC glass vial and 10 µL was injected, followed by hourly injections for a 24-h period. Samples were withdrawn and analysed at time intervals of t = 0 min, 5 min, 30 min, 60 min and hourly for 24 h. The analysis was performed in triplicate. (ii) Thermal stability: 16a (1 mg) was placed in a vial (for the solution, 1 mL of stock solution was used) at 60 °C for 4 h on a heating block. The sample was then cooled, diluted with ACN and analysed using HPLC. (iii) Photostability study: A solution of compound 16a (1 mL of the stock solution) was placed in a vial and exposed to UV light for 4 h. The sample was directly analysed using HPLC. […] Once neutralised, the samples were analysed using HPLC. […] Once neutralised, the samples were analysed using HPLC. […] A sample from the vial was taken every hour over 4 h and analysed using HPLC.

| Structure (SMILES) | IC50 [1] [nM] | cytotoxicity at 10 µM [2] [%] | IC50 [3] [nM] | SW480 inhibition of cell viability [4] [%] | IC50 ([5]; Homo sapiens, MCF7, 72 h, MCF-7, 72 h, read-out: IC50 (MCF-7, 72 h)) [nM] | fold decrease in activity vs corresponding 3-chloro compound 10e ([5]; MCF-7 IC50 ratio) [fold] | half-life at 0.03 mg/mL ([6]; buffer pH 4, 37°C) [h] | half-life at 0.03 mg/mL ([6]; buffer pH 7.4, 37°C) [h] | half-life at 0.03 mg/mL ([6]; buffer pH 9, 37°C) [h] |
| --- | --- | --- | --- | --- | --- | --- | --- | --- | --- |
| COc1ccc(C2N(c3cc(OC)c(OC)c(OC)c3)C(=O)C2(Cl)Cl)cc1 (stereo not drawn) [Compound 11e] | 297 ± 40 | 10 | 119 ± 12 |  |  |  |  |  |  |
| COc1ccc(C2C(Br)C(=O)N2c2cc(OC)c(OC)c(OC)c2)cc1 (stereo not drawn) [Compound 16a, 3-Bromo-4-(4-methoxyphenyl)-1-(3,4,5-trimethoxyphenyl)azetidin-2-one] |  |  |  | 52 | 579 ± 30 | 17 | 18 | 22 | 20 |
